Paper PMC8256334, “Simultaneous Determination of a Novel PD-L1 Inhibitor, IMMH-010, and Its Active Metabolite, YPD-29B, in Rat Biological Matrices by Polarity-Switching Liquid Chromatography-Tandem Mass Spectrometry: Application to ADME Studies” (Frontiers in Pharmacology, 2021)

Key:
[1] = system: various carcinoma xenograft models; conditions: cited from earlier work
Stability in rat plasma = format: in vitro ADME; conditions: for Accuracy (RE, %) / Measured conc.: n = 5; for stability during the sample preparation, storage and analysis: rat plasma: 4°C 4 h, −20°C 3 months, three freeze-thaw cycles, autosampler 10°C 48 h
Method: Plasma: IMMH-010 is an ester-containing compound. […] Therefore, heparin sodium and NaF were dissolved with 0.9% w/v sodium chloride to prepare a mixture of 0.5% heparin sodium and 500 mM NaF. All blood was withdrawn into EP tubes containing this mixture (1:9 v/v mixture:blood) followed by plasma separation. The plasma standards for IMMH-010 were prepared at 1, 2, 5, 10, 20, 80, 120 and 200 ng/ml, and those for YPD-29B were prepared at 2.5, 5, 10, 20, 50, 400, 600 and 1,000 ng/ml. QC samples were prepared at 1, 2, 40 and 160 ng/ml for IMMH-010 and 2.5, 5, 200 and 800 ng/ml for YPD-29B.
For short-term and long-term stability, plasma samples were kept at 4°C for 4 h and −20°C for 3 months, respectively. To evaluate freeze-thaw stability, samples were frozen at −20°C for 24 h and thawed at 4°C for three cycles. […] Stability assays of IMMH-010 and YPD-29B were performed at two QC levels (high and low QC) (n = 5).

[2] = prepared rat plasma samples, at 15°C in auto-sampler (24 h), spiked 2 ng/ml IMMH-010, 5 ng/ml YPD-29B
[3] = prepared rat plasma samples, at 15°C in auto-sampler (24 h), spiked 160 ng/ml IMMH-010, 800 ng/ml YPD-29B
[4] = prepared rat plasma samples, at 15°C in auto-sampler (48 h), spiked 2 ng/ml IMMH-010, 5 ng/ml YPD-29B
[5] = prepared rat plasma samples, at 15°C in auto-sampler (48 h), spiked 160 ng/ml IMMH-010, 800 ng/ml YPD-29B
[6] = rat plasma, 4°C (4 h), spiked 2 ng/ml IMMH-010, 5 ng/ml YPD-29B
[7] = rat plasma, 4°C (4 h), spiked 160 ng/ml IMMH-010, 800 ng/ml YPD-29B
[8] = rat plasma, stored at −20°C (3 months), spiked 2 ng/ml IMMH-010, 5 ng/ml YPD-29B
[9] = rat plasma, stored at −20°C (3 months), spiked 160 ng/ml IMMH-010, 800 ng/ml YPD-29B
[10] = rat plasma, three freeze–thaw cycles, spiked 2 ng/ml IMMH-010, 5 ng/ml YPD-29B
[11] = rat plasma, three freeze–thaw cycles, spiked 160 ng/ml IMMH-010, 800 ng/ml YPD-29B

Row | Accuracy (RE, %) (Stability in rat plasma; [2]) | Measured conc. (Stability in rat plasma; [2]) | Accuracy (RE, %) (Stability in rat plasma; [3]) | Measured conc. (Stability in rat plasma; [3]) | Accuracy (RE, %) (Stability in rat plasma; [4]) | Measured conc. (Stability in rat plasma; [4]) | Accuracy (RE, %) (Stability in rat plasma; [5]) | Measured conc. (Stability in rat plasma; [5]) | stability during the sample preparation, storage and analysis (Stability in rat plasma) | Accuracy (RE, %) (Stability in rat plasma; [6]) | Measured conc. (Stability in rat plasma; [6]) | Accuracy (RE, %) (Stability in rat plasma; [7]) | Measured conc. (Stability in rat plasma; [7]) | Accuracy (RE, %) (Stability in rat plasma; [8]) | Measured conc. (Stability in rat plasma; [8]) | Accuracy (RE, %) (Stability in rat plasma; [9]) | Measured conc. (Stability in rat plasma; [9]) | Accuracy (RE, %) (Stability in rat plasma; [10]) | Measured conc. (Stability in rat plasma; [10]) | Accuracy (RE, %) (Stability in rat plasma; [11]) | Compound | also measured
1 | −6.0% | 1.88 ± 0.21 ng/mL | −7.5% | 148 ± 4 ng/mL | 2.0% | 2.04 ± 0.07 ng/mL | −3.8% | 154 ± 4 ng/mL | stable | 2.5% | 2.05 ± 0.10 ng/mL | 8.1% | 173 ± 20 ng/mL | 12.0% | 2.24 ± 0.10 ng/mL | 3.8% | 166 ± 4 ng/mL | 5.5% | 2.11 ± 0.22 ng/mL | −1.9% | CC(C)OC(=O)C(CO)NCc1cc(Cl)c(OCc2cccc(-c3ccccc3)c2Br)cc1OCc1cccnc1 (centres unmarked) [IMMH-010, 2-[4-(2-bromo-biphenyl-3-ylmethoxy)-5-chloro-2-(pyridin-3-ylmethoxy)-benzylamino]-3-hydroxy-propionic acid isopropyl ester] | antitumor activity [1]: significant antitumor activity; stability in rat plasma with esterase inhibitor (Stability in rat plasma; 4°C, rat plasma containing 50 mM NaF, preliminary results): stable; Measured conc. (Stability in rat plasma; [11]): 157 ± 4 ng/mL
2 | −1.6% | 4.92 ± 0.25 ng/mL | 5.6% | 845 ± 13 ng/mL | −12.2% | 4.39 ± 0.19 ng/mL | −1.1% | 791 ± 17 ng/mL | stable | −4.8% | 4.76 ± 0.12 ng/mL | 4.0% | 832 ± 8 ng/mL | −2.6% | 4.87 ± 0.50 ng/mL | −6.5% | 748 ± 3 ng/mL | −6.2% | 4.69 ± 0.21 ng/mL | 3.9% | O=C(O)[C@H](CO)NCc1cc(Cl)c(OCc2cccc(-c3ccccc3)c2Br)cc1OCc1cccnc1 [YPD-29B] | Measured conc. (Stability in rat plasma; [11]): 831 ± 51 ng/mL
